Literature values, collected in US20110104272A1 (DEPOMED, INC., priority 2009, published 2011).

Row | solubility in water (in words) | SMILES
1 | poorly soluble in water | CC(=O)Nc1ccc(O)cc1 [Acetaminophen, N-(4-hydroxyphenyl)acetamine]
2 | highly soluble in water | CNC[C@H](O)c1cccc(O)c1 [Phenylephrine, (R)-3-[-1-hydroxy-2-(methylamino)ethyl]phenol]
